Our source for the melting point values is patent publication US7151191B2, “Compounds and compositions for delivering active agents” (Emisphere Technologies, Inc., priority 2000, dated 2006).

By melting point is commonly meant the temperature, or range, at which the solid turns liquid.

Molecules are shown by their SMILES.

`O=C(O)CCCCCCCOc1ccc(Cl)cc1NC(=O)c1ccccc1O` [Compound 1, 8-[(N-Salicyloyl-2-amino-4-chloro)phenoxyl]octanoic acid]: the melting point was in the range of 152 to 153 °C.

As to `O=C(O)CCCCOc1ccc(Cl)cc1NC(=O)c1ccccc1O` [Compound 2], the melting point was 166 to 169 °C.

In turn, `O=C(O)CCCOc1ccc(Cl)cc1NC(=O)c1ccccc1O` [Compound 3] came in with a melting point of 231 to 234 °C.

On to `O=C(O)CCCCCCCOc1ccccc1NC(=O)c1ccccc1O` [Compound 4], for which the melting point was 122 to 124 °C.

The compound `O=C(O)CCCCOc1ccccc1NC(=O)c1ccccc1O` [Compound 5] came in with a melting point of 147 to 149 °C.

`COc1cccc(C(=O)Nc2ccc(OCCC(=O)O)cc2)c1OC` [Compound 7]: the melting point lay in the range of 135 to 137 °C.

The compound `O=C(O)CCOc1ccc(NC(=O)c2ccccc2O)cc1` [Compound 8, 3-(4-salicyloylamino)phenoxy propionic acid] displayed a melting point of 165 to 167 °C.

Compound `COc1ccccc1C(=O)Nc1ccc(OCCC(=O)O)cc1` [Compound 9] gave a melting point of 154 to 158 °C.

`O=C(O)COc1ccc(CCCNC(=O)c2ccccc2O)cc1` [Compound 10] gave a melting point of 124 to 126.5 °C.
